How the values were obtained:
human OX-1R = target: T1, human OX-1R (Homo sapiens, UniProt O43613); test: Functional Ki determination: inhibition of orexin-A induced Ca2+ release (FLIPR, Fluo-4AM) in HEK293EBNA cells stably expressing OX-1R; type: cell-based
T1 construct: expressed in transfected cells; host or cells: HEK293EBNA
T1 sequence (O43613 1-425): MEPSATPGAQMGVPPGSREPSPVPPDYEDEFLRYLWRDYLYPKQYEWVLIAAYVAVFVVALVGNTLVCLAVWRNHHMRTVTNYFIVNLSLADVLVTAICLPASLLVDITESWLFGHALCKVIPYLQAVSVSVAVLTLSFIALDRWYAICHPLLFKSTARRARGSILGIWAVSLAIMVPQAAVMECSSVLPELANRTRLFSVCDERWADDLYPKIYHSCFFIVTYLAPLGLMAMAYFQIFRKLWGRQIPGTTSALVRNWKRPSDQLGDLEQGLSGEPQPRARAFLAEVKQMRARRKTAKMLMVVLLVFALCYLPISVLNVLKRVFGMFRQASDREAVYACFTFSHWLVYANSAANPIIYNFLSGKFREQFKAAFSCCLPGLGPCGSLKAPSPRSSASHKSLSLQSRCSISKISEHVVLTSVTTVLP
Method: Human embryonic kidney (HEK293EBNA) cells stably expressing OX-1R seeded in 96- or 384-well plates are pre-loaded with Ca^2+ sensing probe Fluo-4AM fluorescent dye for 60 min before addition of test compounds (10 μM for primary screen). Fluorescent intensity, which is a measurement of Ca^2+ concentration inside the cells, is recorded using a Fluorometric imaging plate reader (FLIPR 98R 96-well format or FLIPR 3, 384-well format, Molecular Devices) and inhibition of the peak response evoked by orexin-A (EC70 concentration) is calculated. Potency (Ki) determinations are performed utilizing the same functional assay as described for primary screening, applying the compounds in the concentration range of 340 pM to 20 μM and recording the concentration resulting in a 50% inhibition of orexin-A induced Ca^2+ release (IC50) and from there calculating the inhibition constant (Ki).
The calculation of the functional Ki values for the inhibitors was performed by use of Activity Base. The Ki value is calculated from IC50 using the Cheng Prushoff equation (with reversible inhibition that follows the Michaelis-Menten equation): Ki=IC50/(1+[S]/Km) (Cheng, Y. C. & Prushoff, W. H. (1973) Biochem. Pharmacol. 22:3099-3108).

ob/ob mice = settings: 30 mg/kg i.p. once daily for 7 days plus twice daily for another 7 days; cited from earlier work
rats = settings: i.p.; cited from earlier work

SMILES: O=C(COc1cccc(-c2ccc3c(c2)COC2(CCNCC2)O3)c1)Nc1ccccc1 [Example 8, N-phenyl-2-[3-(4H-spiro[1,3-benzodioxine-2,4′-piperidin]-6-yl)phenoxy]acetamide]
- Ki (human OX-1R): 253 nM

SMILES: COc1cc(-c2ccc3c(c2)OC2(CCNCC2)O3)cc(OC)c1OC [Example 4, 5-(3,4,5-trimethoxyphenyl)spiro[1,3-benzodioxole-2,4′-piperidine]]
- Ki (human OX-1R): 823 nM

SMILES: Cc1nc2ccc(NC(=O)Nc3ccnc4cccnc34)cc2o1 [SB-334867]
- body weight gain (ob/ob mice): suppressed
- cumulative food intake (ob/ob mice): suppressed
- lean body mass (ob/ob mice): unchanged
- total fat mass (ob/ob mice): reduced
- behavioral satiety sequence (rats): advances the behavioral satiety sequence increasing the time the animals spend resting

SMILES: COc1cc(-c2ccc3c(c2)COC2(CCNCC2)O3)cc(OC)c1OC [Example 2, 6-[3,4,5-trimethoxyphenyl]-4H-spiro[1,3-benzodioxine-2,4′-piperidine]]
- Ki (human OX-1R): 349 nM

— US20060217375A1, “New compounds” (priority 2004, published 2006)
